Experimental data: patent US20090023683A1, “COMPLEXES COMPRISING ZOLEDRONIC ACID AND CYCLODEXTRINS” (priority 2007, published 2009)

Key:
[1] = cited from earlier work
[2] = cited from earlier work; remark: listed apart in the source
[3] = Water solubility at 25° C. of zoledronic acid-HPβCD complexes and zoledronic acid monohydrate; type: physicochemical
From the text: Solubility data of Examples 1-5 and Zoledronic Acid Monohydrate

hydroxypropyl-β-cyclodextrin [HPβCD]
solubility in water ([1]; room temperature): greater than 500 mg/ml | adverse effects in human studies [2]: no adverse effects are observed

O=P(O)(O)C(O)(Cn1ccnc1)P(=O)(O)O [zoledronic acid]
water solubility (in words) [1]: sparingly water-soluble

O=P(O)(O)C(O)(Cn1ccnc1)P(=O)(O)O [Zoledronic acid monohydrate, zoledronic acid monohydrate]
solubility [3]: < 7000 µg/mL
